Data from PMC5454592, “Pharmacological and Toxicological Properties of the Potent Oral γ-Secretase Modulator BPN-15606” (The Journal of Pharmacology and Experimental Therapeutics, 2017).
“Also recorded” adds a separate entry of the source. Like-named read-outs stand apart in the source and are kept apart here.

How the values were obtained:
γ-secretase = γ-secretase (Homo sapiens, UniProt P49768); test: anti-Aβ immunoprecipitation/MALDI-TOF of neuronal cells; type: cell-based; set-up: endogenous in cells; host or cells: 'neuronal cells' (not specified further); details: neuronal cells treated overnight with 100 nM
Description: All Aβ assays, including the anti-Aβ immunoprecipitation/matrix-assisted laser desorption/ionization time of flight, were carried out as described previously ([Wagner et al., 2014]).

[1] = Toxicokinetics in rats (7-day po); type: in vivo; details: male, Sprague-Dawley, rat, plasma; for MRT last: day 1, read-out: mean residence time to the last time point
Description: Data were subjected to noncompartmental analysis using WinNonlin Phoenix Model 200 (for extravascular administration) or Model 201 (for i.v. bolus administration) and the sparse sampling feature; a uniform weighting factor was applied to each data set. Time to maximum plasma concentration (Tmax) and maximum plasma concentration (Cmax) values were determined directly from the data. Area under the plasma concentration–time curve to the last time point (AUClast) values were calculated using the log/linear trapezoidal (i.v. dose) or linear up/log down trapezoidal (po dose). Values were calculated using the plasma data from composite groups. The dose administered was input to the program as mg/kg, and as a result no additional corrections for individual body weights of the animals were necessary. The following parameters and constants were determined for the i.v. and po groups: observed Cmax, Tmax, AUClast, area under the plasma concentration–time curve extrapolated to infinity, terminal phase elimination half-life, and mean residence time to the last time point. The volume of distribution at steady state and clearance were calculated using the i.v. group data. Bioavailability after oral administration was calculated using the AUClast values for both the i.v. and po groups.
The objectives of this toxicity study were to determine maximum tolerated dose (MTD), characterize the potential toxicity, and calculate toxicokinetic parameters of BPN-15606 in adult male Sprague–Dawley rats (8–10 weeks of age) following daily po dose administration for 7 consecutive days, and to evaluate its potential to damage chromosomes or cause mitotic spindle abnormalities in vivo, as measured by the incidence of micronucleus formation in RNA-containing erythrocytes (bone marrow micronucleus assay). An overview of the study design is presented in Supplemental Table 8. Male rats were administered BPN-15606 po for 7 consecutive days at 30, 100, or 300 mg/kg (groups 2, 3, and 4). A control group (group 1) was given vehicle, 15% Labrasol/85% sterile water, at an equivalent dose volume (10 ml/kg). A 375 mg/kg dose (group 5) was included for determination of day 1 plasma drug levels. Clinical observations were recorded twice daily.

[2] = tested on: Notch proteolysis by γ-secretase; test: Notch assay (Myc-tagged Notch NΔE in H4-APP751 neuroglioma cells); type: cell-based
Description: Notch assays were carried out as described previously ([Wagner et al., 2014]).

in vivo = details: both sexes, cynomolgus monkey, po, repeat dose
[3] = Repeat-dose (9-day) efficacy study in rats; type: in vivo, Sprague–Dawley rats; details: male, Sprague-Dawley, rat, in vivo
Description: (§1) Male C57BL/6J mice (n = 10/dose level) and male Sprague–Dawley rats (n = 14/dose level) were administered either vehicle (80% polyethylene glycol 400 v/v; 20% sterile water v/v and 0.1% Tween 20 v/v) or BPN-15606 (10, 25, and 50 mg/kg) once daily po for 7 consecutive days (mice) or 5, 25, and 50 mg/kg once daily po for 9 consecutive days (rats). […] Animals were sacrificed 4 hours following the dosing on day 7 of the 7-day oral treatment course (mice) and on day 9 of the 9-day oral treatment course (rats). Plasma and brain extracts were prepared (mice and rats); CSF was aspirated from the cisterna magnum with minimal to no blood contamination (rats only); and tissues were frozen at −70°C. Aβ peptides were quantitated in brain extracts and plasma (mice) or CSF and plasma (rats), as described previously, using Meso Scale multiplex kits and the Meso Scale Sector Imager 6000 ([Kounnas et al., 2010]). Statistical analysis was performed using GraphPad Prism software, and results are expressed as mean ± S.E.M. Analysis of variance was used to detect a significant effect. Drug levels of BPN-15606 were measured in plasma and brain extracts using the bioanalytical methods detailed above.

Aβ42 and Aβ40 levels [4] = test: Repeat-dose (9-day) efficacy study in rats; type: in vivo, Sprague–Dawley rats
Description: as §1

Aβ42 and Aβ40 levels [5] = test: Repeat-dose (7-day) efficacy study in mice; type: in vivo, C57BL/6J mice
Description: as §1

[6] = tested on: bone marrow polychromatic erythrocytes; test: Bone marrow micronucleus assay in rats; type: in vivo; details: 7 days at 30 or 100 mg/kg
Description: The micronucleus component of this study was performed to evaluate the ability of BPN-15606 to induce chromosomal damage in bone marrow of male Sprague–Dawley rats. Rats (n = 5/group) were scheduled to receive single daily doses of BPN-15606 for 7 days at 30, 100, and 300 mg/kg/d (groups 2, 3, and 4, respectively), with euthanasia scheduled 24 hours after the final dose. Animals receiving 300 mg/kg/d were sacrificed in moribund condition on day 3 or 4 due to excessive toxicity, and micronucleus formation was not evaluated; all other treated animals survived to necropsy. Bone marrow samples collected from the low and mid dose groups (30 and 100 mg/kg) were evaluated for cytotoxicity and for micronucleus formation (see Supplemental Table 8). Three bone marrow smear slides were prepared per animal and fixed in absolute methanol. […] Two slides per animal were stained with acridine orange, coded, and evaluated (blind) using epifluorescence microscopy. […] The criteria employed for identifying and quantitating micronuclei are those described by [Schmid (1975)]. Two principal parameters were determined, as follows: 1) the number of PCE among 200 total red blood cells (RBC) per animal (PCE/RBC ratio), which provides an index of bone marrow cytotoxicity, and 2) the number of micronucleated RNA-positive PCE among a total of 2000 PCE per animal, which provides an index of chromosomal damage.

In the case of `COc1nc(-c2cc(C)c(N[C@@H](C)c3ccc(F)cc3)nn2)ccc1-n1cnc(C)c1` [BPN-15606, (S)-N-(1-(4-fluorophenyl)ethyl)-6-(6-methoxy-5-(4-methyl-1H-imidazol-1-yl)pyridin-2-yl)-4-methylpyridazin-3-amine], the “Aβ37 peak (IP/MALDI-TOF)” value (γ-secretase) is reported as “significantly increased”, the “Aβ38 peak (IP/MALDI-TOF)” value (γ-secretase) is reported as “significantly increased” and the “Aβ40 peak (IP/MALDI-TOF)” value (γ-secretase) is reported as “significantly reduce”. For the same compound, the “Aβ42 peak (IP/MALDI-TOF)” value (γ-secretase) was “completely eliminate the peak”, the Tmax ([1]; 30 mg/kg, rats, 30 mg/kg, day 1, read-out: mean Tmax) was 13.3 h and the Tmax ([1]; 30 mg/kg, rats, 30 mg/kg, day 7, read-out: mean Tmax) was 6.7 h. For the same compound, the Tmax ([1]; rats po, depending on dose, read-out: Tmax for individual animals) was 4 to 24 h, the MRT last ([1]; rats, 30 mg/kg) was 9.1 h and the MRT last ([1]; rats, 100 mg/kg) was 13.6 h. The Tmax ([1]; rats, 100 and 300 dose groups, day 1, read-out: mean Tmax (time to the peak plasma drug level)) was 18.7 h, the Notch proteolysis ([2]; H4-APP751 neuroglioma cells transfected with Myc-tagged Notch (NΔE) construct, Fig. 3) was “does not inhibit Notch proteolysis” and the Notch cleavage ([2]; doses as high as 25 μM) was “does not affect Notch cleavage”. For the same compound, the MTD at 6 days (in vivo) was less than 300 mg/kg/day, the NOAEL at 9 days [3] was 50 mg/kg and the “safety margin based on dose” value (Aβ42 and Aβ40 levels [4]; rat, NOAEL 50 mg/kg vs lowest efficacious dose 5 mg/kg) was no less than 10 fold. For the same compound, the “lowering of CSF Aβ42 levels” value (Aβ42 and Aβ40 levels [4]; rats, 5 mg/kg) was roughly 40%, the “lowering of CSF Aβ42 levels” value (Aβ42 and Aβ40 levels [4]; rats, 25 mg/kg) was 70–75% and the “lowering of plasma Aβ42” value (Aβ42 and Aβ40 levels [4]; rats, 25 mg/kg) was greater than 90%. For the same compound, the clinical observations (Aβ42 and Aβ40 levels [4]; rats, 5, 25, 50 mg/kg po daily for 9 days) was “all animals appeared normal throughout the study”, the “lowering of brain Aβ42 levels” value (Aβ42 and Aβ40 levels [5]; mice, 10 mg/kg) was roughly 40% and the “lowering of brain Aβ42 levels” value (Aβ42 and Aβ40 levels [5]; mice, 25 mg/kg) was 70–75%. The “lowering of plasma Aβ42” value (Aβ42 and Aβ40 levels [5]; mice, 25 mg/kg) was greater than 90%, the clinical observations (Aβ42 and Aβ40 levels [5]; mice, 10, 25, 50 mg/kg po daily for 7 days) was “all animals appeared normal throughout the study” and the “micronucleus induction in bone marrow (micronucleated PCE)” value [6] was “did not induce micronuclei; also recorded: no statistically significant increase”. The “suppression of PCE among RBC in bone marrow” value [6] was “no significant suppression”.
